Laboratory results: patent publication US20240398989A1, “METHODS AND COMPOSITIONS FOR DIAGNOSIS AND TREATMENT OF METABOLIC DISORDERS” (The Broad Institute, Inc., priority 2021, published 2024)
Entries after “also recorded” stand apart in the source; their conditions may differ.

Tests used:
[1] = system: subcutaneous adipocytes; assay: LipocyteProfiler of isoproterenol-treated vs DMSO-treated subcutaneous adipocytes (AMSCs, day 14); format: cell-based, human; settings: subcutaneous adipocytes/AMSCs at day 14, isoproterenol
Protocol: For imaging, cells were seeded at 10K cells/well in 96-well plates (Cell Carrier, Perkin Elmer #6005550) and induced 4 days after seeding. For RNAseq, cells were seeded at 40K cells/well in 12-well dishes (Corning). […] Adipogenic differentiation was induced by changing culture medium to induction medium. […] Visceral-derived AMSCs were differentiated by further adding 2% FBS as well as 0.1 mM oleic and linoleic acid to the induction and differentiation media. For isoproterenol stimulation experiments, 1 μM isoproterenol was added to the differentiation media and cells treated overnight. Human primary AMSCs and PHH were plated in 96-well CellCarrier plates (Perkinelmer #6005550). AMSCs were differentiated for 14 days and high content imaging was performed at day 0, day 3, day 8 and day 14 of adipogenic differentiation. Primary human hepatocytes were stained after 48 h in culture, and 24h following treatment with oleic acid or metformin. […] Regions of cytoplasm were then determined by removing the Nuclei from the Cell segmentations. […] Second, every field was assessed visually and fields that were corrupted by experimental induced technical artifacts were removed. […]

[2] = system: visceral adipocytes; assay: LipocyteProfiler of isoproterenol-treated vs DMSO-treated visceral adipocytes (AMSCs, day 14); format: cell-based, human; settings: for BODIPY-related Granularity (lipid droplet sizes): isoproterenol vs DMSO, across the full granularity size spectra
Protocol: For imaging, cells were seeded at 10K cells/well in 96-well plates (Cell Carrier, Perkin Elmer #6005550) and induced 4 days after seeding. For RNAseq, cells were seeded at 40K cells/well in 12-well dishes (Corning). […] Adipogenic differentiation was induced by changing culture medium to induction medium. […] Visceral-derived AMSCs were differentiated by further adding 2% FBS as well as 0.1 mM oleic and linoleic acid to the induction and differentiation media. For isoproterenol stimulation experiments, 1 μM isoproterenol was added to the differentiation media and cells treated overnight. Human primary AMSCs and PHH were plated in 96-well CellCarrier plates (Perkinelmer #6005550). AMSCs were differentiated for 14 days and high content imaging was performed at day 0, day 3, day 8 and day 14 of adipogenic differentiation. Primary human hepatocytes were stained after 48 h in culture, and 24h following treatment with oleic acid or metformin. On the respective day of the assay, cell culture media was removed and replaced by 0.5 μM Mitotracker staining solution (1 mM MitoTracker Deep Red stock (Invitrogen #M22426) diluted in culture media) to each well followed by 30 minutes incubation at 37° C.' protected from light. […] PFA was removed and cells were washed once with Hank's Balanced Salt Solution (1×), HBSS (Gibco #14025076). […] Finally, staining solution was removed and cells were washed three times with HBSS. Cells were imaged using a Opera Phenix High content screening system. […] Prior to processing, flat field illumination correction was performed using functions generated from the median intensity across each plate. Nuclei were identified using the DAPI stain and then expanded to identify whole cells using the Phalloidin/WGA and BODIPY stains. Regions of cytoplasm were then determined by removing the Nuclei from the Cell segmentations. Speckles of BODIPY staining were enhanced to assist in detection of small and large individual Lipid objects. For each object set measurements were collected representing size, shape, intensity, granularity, texture, colocalization and distance to neighbouring objects. After LipocyteProfiler (LP) feature extraction data was filtered by applying automated and manual quality control steps. […] Second, every field was assessed visually and fields that were corrupted by experimental induced technical artifacts were removed. Furthermore, blocklisted features (Way, Gregory (2019): Blocklist Features-Cell Profiler. figshare. […] After filtering data were normalised per plate using a robust scaling approach (Pedregosa et al. 2011) that subtracts the median from each variable and divides it by the interquartile range. Individual wells were aggregated for downstream analysis by cell depot and day of differentiation.

In the case of `CC(C)NCC(O)c1ccc(O)c(O)c1` (stereo not shown) [isoproterenol], the “effect on morphological profile” value [1] is reported as “no effect”, the “Mitochondrial Intensity” value ([2]; 24 hour isoproterenol (1 μM) vs DMSO-treated controls, day 14, p=0.0413) is reported as “increases” and the “mitochondrial Texture_Entropy” value ([2]; 24 hour isoproterenol vs DMSO-treated controls, p=0.0092) is reported as “differences; also recorded: increases”. For the same molecule, the “BODIPY Texture Entropy” value ([2]; 24 hour isoproterenol vs DMSO-treated controls, p=0.032) was “decrease”, the “BODIPY MedianIntensity” value ([2]; 24 hour isoproterenol vs DMSO-treated controls, p=0.041) was “decrease” and the “BODIPY-related Granularity (lipid droplet sizes)” value [2] was “decreased”. The “BODIPY-related Granularity (lipid droplet sizes)” value ([2]; listed as Isoproterenol) was “reduces”.
